This passage reports IC50 and CLint scaled results from ChEMBL document CHEMBL5390231, “Development of small molecule inhibitors targeting RNA helicase DHX33 as anti-cancer agents” (Bioorg Med Chem Lett, 2023).

Data set [1] concerns the target T1, Probable ATP-dependent RNA helicase DDX59 (Homo sapiens, UniProt Q5T1V6).
T1 sequence (Q5T1V6 whole entry): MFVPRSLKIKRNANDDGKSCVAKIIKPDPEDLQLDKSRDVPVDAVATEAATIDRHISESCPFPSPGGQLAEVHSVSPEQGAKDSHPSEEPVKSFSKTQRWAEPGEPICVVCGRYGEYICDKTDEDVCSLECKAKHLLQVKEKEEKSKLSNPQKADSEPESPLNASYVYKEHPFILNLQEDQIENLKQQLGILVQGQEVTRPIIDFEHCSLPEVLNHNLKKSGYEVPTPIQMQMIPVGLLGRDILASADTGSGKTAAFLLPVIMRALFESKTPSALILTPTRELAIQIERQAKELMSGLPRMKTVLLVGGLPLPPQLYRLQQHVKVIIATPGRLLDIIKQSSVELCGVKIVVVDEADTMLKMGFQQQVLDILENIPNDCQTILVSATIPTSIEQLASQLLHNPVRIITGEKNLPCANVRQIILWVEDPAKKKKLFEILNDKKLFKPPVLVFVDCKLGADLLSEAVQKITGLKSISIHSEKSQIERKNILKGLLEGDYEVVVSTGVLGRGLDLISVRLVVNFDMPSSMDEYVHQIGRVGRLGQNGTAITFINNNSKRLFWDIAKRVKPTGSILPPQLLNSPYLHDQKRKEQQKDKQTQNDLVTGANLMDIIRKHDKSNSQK
Kind of data set: Inhibition of C-terminal 6xHis-tagged human recombinant DDX59 transformed in Escherichia coli BL21(DE3)pLysS cells.

Data set [2] in a line: Microsomal stability in human liver microsome assessed as intrinsic clearance. The data set is classed as ADME. Conditions: liver microsomes, read-out: CLH.
For a further data set, the system named is U-251. Kind of data set: Antiproliferative activity against human U-251MG cells overexpressing DHX33 assessed as inhibition of cell growth measured after 48 hrs by CCK-8 assay. Conditions: U-251, 48 h. The data set is classed as functional, cell-based. In general terms: Tetrazolium dyes change colour on reduction, which living cells bring about.
For data set [3], the target named is T2, Putative pre-mRNA-splicing factor ATP-dependent RNA helicase DHX32 (Homo sapiens, UniProt Q7L7V1).
T2 sequence (Q7L7V1 whole entry): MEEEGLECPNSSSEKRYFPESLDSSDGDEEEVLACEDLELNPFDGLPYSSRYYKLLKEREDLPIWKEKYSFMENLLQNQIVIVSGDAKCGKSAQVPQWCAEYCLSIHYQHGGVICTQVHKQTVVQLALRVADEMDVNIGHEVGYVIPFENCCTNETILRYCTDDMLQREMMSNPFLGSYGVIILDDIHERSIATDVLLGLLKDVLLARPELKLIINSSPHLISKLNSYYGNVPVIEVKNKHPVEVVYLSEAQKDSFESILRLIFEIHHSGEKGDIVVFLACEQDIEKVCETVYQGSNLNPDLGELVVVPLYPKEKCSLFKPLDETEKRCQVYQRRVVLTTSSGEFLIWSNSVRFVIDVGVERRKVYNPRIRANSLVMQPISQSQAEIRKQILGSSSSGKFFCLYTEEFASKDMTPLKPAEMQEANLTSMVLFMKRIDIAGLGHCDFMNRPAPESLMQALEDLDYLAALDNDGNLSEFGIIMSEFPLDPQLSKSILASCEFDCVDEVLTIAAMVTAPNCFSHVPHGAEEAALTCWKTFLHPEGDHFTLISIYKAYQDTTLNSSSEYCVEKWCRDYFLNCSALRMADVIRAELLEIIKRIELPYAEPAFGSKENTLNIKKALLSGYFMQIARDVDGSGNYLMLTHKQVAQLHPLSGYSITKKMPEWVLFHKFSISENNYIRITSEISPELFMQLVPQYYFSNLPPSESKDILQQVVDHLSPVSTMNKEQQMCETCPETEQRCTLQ
Kind of data set: Inhibition of N-terminal thioredoxin-tagged human recombinant DHX32 transformed in Escherichia coli BL21(DE3)pLysS cells.

The target of data set [4] is T3, Probable ATP-dependent RNA helicase DHX35 (Homo sapiens, UniProt Q9H5Z1).
T3 sequence (Q9H5Z1 whole entry): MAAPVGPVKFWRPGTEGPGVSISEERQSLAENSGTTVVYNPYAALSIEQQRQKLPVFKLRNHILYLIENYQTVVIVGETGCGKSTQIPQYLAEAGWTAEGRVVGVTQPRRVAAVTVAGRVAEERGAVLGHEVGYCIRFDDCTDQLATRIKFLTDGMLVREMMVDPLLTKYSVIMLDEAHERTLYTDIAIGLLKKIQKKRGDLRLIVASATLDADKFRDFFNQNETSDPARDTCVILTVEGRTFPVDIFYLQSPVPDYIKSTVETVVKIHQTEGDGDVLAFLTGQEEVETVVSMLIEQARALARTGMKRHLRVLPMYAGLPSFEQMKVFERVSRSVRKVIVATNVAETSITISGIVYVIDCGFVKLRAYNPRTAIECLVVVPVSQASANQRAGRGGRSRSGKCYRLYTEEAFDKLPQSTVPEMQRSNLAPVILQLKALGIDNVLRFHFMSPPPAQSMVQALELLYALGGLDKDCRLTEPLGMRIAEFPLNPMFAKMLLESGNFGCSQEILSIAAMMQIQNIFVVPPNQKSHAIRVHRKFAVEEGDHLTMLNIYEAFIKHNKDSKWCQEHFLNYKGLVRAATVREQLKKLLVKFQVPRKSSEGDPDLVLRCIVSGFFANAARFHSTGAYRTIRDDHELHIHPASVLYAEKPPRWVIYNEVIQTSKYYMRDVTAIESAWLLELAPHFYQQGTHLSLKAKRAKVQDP
Kind of data set: Inhibition of N-terminal thioredoxin-tagged human recombinant DHX35 transformed in Escherichia coli BL21(DE3)pLysS cells.

Molecules are shown by their SMILES. Where only a bound is given, the exact number is not on record here.

Consider `COc1ccc2nc(NC(=O)c3cc(C)n(-c4sc(C)cc4C#N)c3C)[nH]c2c1`, for which the IC50 (as a rule, the concentration that gives 50% inhibition) is above 100 µM in data set [1], 0.02 µM in the data set with U-251, above 100 µM in data set [3] and 117 µM in data set [4]. The CLint scaled in data set [2] came out at 22.4 mL/min/kg.
